How the values were obtained:
Experiment in all cases: relative viability (nuclei count vs DMSO), 5 days (fraction); higher = more cells survive
Zebularine + Navitoclax = compound: O=c1ncccn1[C@@H]1O[C@H](CO)[C@@H](O)[C@H]1O [Zebularine] + CC1(C)CCC(c2ccc(Cl)cc2)=C(CN2CCN(c3ccc(C(=O)NS(=O)(=O)c4ccc(N[C@H](CCN5CCOCC5)CSc5ccccc5)c(S(=O)(=O)C(F)(F)F)c4)cc3)CC2)C1 [Navitoclax] (partner 0.5 µM)
Summary of the method: (§1)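 Each reported value is a median over duplicate plates. It expresses relative viability: treated-well nuclei count divided by vehicle-well nuclei count. Lung cancer cell lines in 1536-well plates were dosed by pin tool a day after seeding, alone with one drug or with a fixed anchor-drug dose plus five library-drug doses (not always all listed) in √10 steps, and nuclei were counted after 5 days.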

BI-D1870 + Phenformin = compound: CC(C)CCN1c2nc(Nc3cc(F)c(O)c(F)c3)ncc2N(C)C(=O)C1C [BI-D1870] + N=C(N)NC(=N)NCCc1ccccc1 [Phenformin] (partner 250 µM)
Summary of the method: as §1

BI-D1870 + Trametinib = compound: CC(C)CCN1c2nc(Nc3cc(F)c(O)c(F)c3)ncc2N(C)C(=O)C1C [BI-D1870] + CC(=O)Nc1cccc(-n2c(=O)n(C3CC3)c(=O)c3c(Nc4ccc(I)cc4F)n(C)c(=O)c(C)c32)c1 [Trametinib] (partner 0.02 µM)
Summary of the method: as §1

BI-D1870 + Decitabine = compound: CC(C)CCN1c2nc(Nc3cc(F)c(O)c(F)c3)ncc2N(C)C(=O)C1C [BI-D1870] + Nc1ncn([C@H]2C[C@H](O)[C@@H](CO)O2)c(=O)n1 [Decitabine] (partner 2 µM)
Summary of the method: as §1

| Cell Line | relative viability (Zebularine + Navitoclax; first compound 1 µM) | relative viability (Zebularine + Navitoclax; first compound 3.162 µM) | relative viability (Zebularine + Navitoclax; first compound 10 µM) | relative viability (Zebularine + Navitoclax; first compound 31.62 µM) | relative viability (Zebularine + Navitoclax; first compound 100 µM) | relative viability (BI-D1870 + Phenformin; first compound 0.04 µM) | relative viability (BI-D1870 + Phenformin; first compound 0.1265 µM) | relative viability (BI-D1870 + Phenformin; first compound 0.4 µM) | relative viability (BI-D1870 + Phenformin; first compound 1.265 µM) | relative viability (BI-D1870 + Phenformin; first compound 4 µM) | relative viability (BI-D1870 + Trametinib; first compound 0.04 µM) | relative viability (BI-D1870 + Trametinib; first compound 0.1265 µM) | relative viability (BI-D1870 + Trametinib; first compound 0.4 µM) | relative viability (BI-D1870 + Trametinib; first compound 1.265 µM) | relative viability (BI-D1870 + Trametinib; first compound 4 µM) | relative viability (BI-D1870 + Decitabine; first compound 0.04 µM) | relative viability (BI-D1870 + Decitabine; first compound 0.1265 µM) | relative viability (BI-D1870 + Decitabine; first compound 0.4 µM) | relative viability (BI-D1870 + Decitabine; first compound 1.265 µM) | relative viability (BI-D1870 + Decitabine; first compound 4 µM) |
| --- | --- | --- | --- | --- | --- | --- | --- | --- | --- | --- | --- | --- | --- | --- | --- | --- | --- | --- | --- | --- |
| 201T | 1.21 | 1.21 | 0.981 | 1.19 | 1.18 | 0.457 | 0.47 | 0.421 | 0.487 | 0.428 | 0.694 | 0.683 | 0.703 | 0.705 | 0.715 | 0.886 | 0.849 | 0.847 | 0.848 | 0.879 |
| HCC-44 | 0.965 | 0.943 | 0.669 | 0.973 | 0.248 | 0.315 | 0.211 | 0.186 | 0.256 | 0.232 | 1.04 | 1.06 | 1.07 | 1.04 | 1.2 | 0.987 | 0.973 | 0.96 | 1.03 | 1.04 |
| NCI-H596 | 0.974 | 0.9 | 0.799 | 0.984 | 0.893 | 0.809 | 0.683 | 0.695 | 0.74 | 0.855 | 0.95 | 0.773 | 0.846 | 0.804 | 0.762 | 1.06 | 0.857 | 0.956 | 1.14 | 0.999 |
| H3255 | 0.627 | 0.453 |  | 0.36 | 0.409 | 0.408 | 0.323 | 0.334 | 0.356 | 0.367 | 0.655 | 0.506 | 0.568 | 0.661 | 0.599 | 0.633 | 0.643 | 0.571 | 0.749 | 0.648 |
| NCI-H647 | 1.25 | 1.06 | 0.232 | 0.143 | 0.115 | 0.659 | 0.466 | 0.62 | 0.513 | 0.324 | 0.575 | 0.45 | 0.533 | 0.462 | 0.335 | 0.386 | 0.339 | 0.481 | 0.455 | 0.537 |
| NCI-H2023 | 1.14 | 1.04 | 0.851 | 0.924 | 0.247 | 0.487 | 0.367 | 0.408 | 0.416 | 0.308 | 0.537 | 0.389 | 0.578 | 0.516 | 0.349 | 0.204 | 0.188 | 0.232 | 0.248 | 0.281 |
| NCI-H23 | 0.775 | 0.802 |  | 0.818 | 0.86 | 0.827 | 0.758 | 0.768 | 0.759 | 0.736 | 0.39 | 0.342 | 0.385 | 0.329 | 0.295 | 0.336 | 0.329 | 0.306 | 0.333 | 0.242 |
| NCI-H1944 | 1.11 | 0.984 | 0.705 | 0.9 | 0.669 | 0.218 | 0.185 | 0.184 | 0.237 | 0.205 | 0.443 | 0.362 | 0.382 | 0.423 | 0.393 | 0.435 | 0.415 | 0.388 | 0.508 | 0.432 |
| NCI-H1793 | 0.403 | 0.448 | 0.318 | 0.285 | 0.208 | 0.387 | 0.311 | 0.389 | 0.423 | 0.27 | 0.486 | 0.332 | 0.366 | 0.631 | 0.429 | 0.513 | 0.439 | 0.528 | 0.681 | 0.632 |
| NCI-H520 | 1.16 | 0.994 | 0.442 | 0.427 | 0.294 | 0.514 | 0.596 | 0.584 | 0.537 | 0.429 | 0.645 | 0.627 | 0.683 | 0.612 | 0.302 | 0.406 | 0.494 | 0.597 | 0.649 | 0.471 |
| NCI-H460 | 1.26 | 1.18 | 0.0689 | 0.413 | 0.0857 | 0.541 | 0.48 | 0.503 | 0.447 | 0.0984 | 0.133 | 0.117 | 0.126 | 0.105 | 0.0577 | 0.548 | 0.459 | 0.473 | 0.593 | 0.443 |
| EKVX | 1.03 | 0.755 |  | 0.947 | 1.03 | 0.243 | 0.214 | 0.23 | 0.21 | 0.18 | 0.336 | 0.281 | 0.339 | 0.401 | 0.445 | 0.328 | 0.309 | 0.374 | 0.436 | 0.39 |
| EPLC-272H | 1.45 |  |  | 1.26 | 0.639 | 0.36 | 0.262 | 0.289 | 0.28 | 0.2 | 0.292 | 0.258 | 0.302 | 0.298 | 0.306 | 0.372 | 0.346 | 0.417 | 0.359 | 0.372 |
| NCI-H1395 | 0.99 | 1.37 | 0.919 | 0.629 | 0.473 | 0.451 | 0.418 | 0.464 | 0.456 | 0.427 | 1.09 | 0.972 | 1.01 | 1.17 | 0.978 | 0.68 | 0.671 | 0.707 | 0.738 | 0.718 |

Source: the supplement of paper PMC10307832
